How the values were obtained:
ALK3/BMPR1A = biological target: T1, ALK3/BMPR1A (Homo sapiens, UniProt P36894); experiment: HotSpot kinase assay; format: biochemical; conditions: read-out: % Enzyme Activity (relative to DMSO controls)
T1 construct: purchased Reaction Biology Corporation

ASK1/MAP3K5 = biological target: T2, ASK1/MAP3K5 (Homo sapiens, UniProt Q99683); experiment: HotSpot kinase assay; format: biochemical; conditions: read-out: % Enzyme Activity (relative to DMSO controls)
T2 construct: purchased Reaction Biology Corporation

BRAF = biological target: T3, BRAF (Homo sapiens, UniProt P15056); experiment: HotSpot kinase assay; format: biochemical; conditions: read-out: % Enzyme Activity (relative to DMSO controls)
T3 construct: purchased Reaction Biology Corporation

BTK = biological target: T4, BTK (Homo sapiens, UniProt Q06187); experiment: HotSpot kinase assay; format: biochemical; conditions: read-out: % Enzyme Activity (relative to DMSO controls)
T4 construct: purchased Reaction Biology Corporation

CAMKK1 = biological target: T5, CAMKK1 (Homo sapiens, UniProt Q8N5S9); experiment: biochemical; conditions: read-out: % Enzyme Activity (relative to DMSO controls)
T5 construct: purchased Reaction Biology Corporation

CDK5/p35 = biological target: T6, CDK5/p35 (Homo sapiens, UniProt Q00535); experiment: HotSpot kinase assay; format: biochemical; conditions: read-out: % Enzyme Activity (relative to DMSO controls)
T6 construct: purchased Reaction Biology Corporation

CDK7/cyclin H = biological target: T7, CDK7/cyclin H (Homo sapiens, UniProt P50613); experiment: HotSpot kinase assay; format: biochemical; conditions: read-out: % Enzyme Activity (relative to DMSO controls)
T7 construct: purchased Reaction Biology Corporation

CDK9/cyclin T2 = biological target: T8, CDK9/cyclin T2 (Homo sapiens, UniProt P50750); experiment: HotSpot kinase assay; format: biochemical; conditions: read-out: % Enzyme Activity (relative to DMSO controls)
T8 construct: purchased Reaction Biology Corporation

CHK1 = biological target: T9, CHK1 (Homo sapiens, UniProt O14757); experiment: HotSpot kinase assay; format: biochemical; conditions: read-out: % Enzyme Activity (relative to DMSO controls)
T9 construct: purchased Reaction Biology Corporation

DAPK2 = biological target: T10, DAPK2 (Homo sapiens, UniProt Q9UIK4); experiment: HotSpot kinase assay; format: biochemical; conditions: read-out: % Enzyme Activity (relative to DMSO controls)
T10 construct: purchased Reaction Biology Corporation

EGFR = biological target: T11, EGFR (Homo sapiens, UniProt P00533); experiment: biochemical
T11 construct: purchased Reaction Biology Corporation

EPHB1 = biological target: T12, EPHB1 (Homo sapiens, UniProt P54762); experiment: HotSpot kinase assay; format: biochemical; conditions: read-out: % Enzyme Activity (relative to DMSO controls)
T12 construct: purchased Reaction Biology Corporation

FAK/PTK2 = biological target: T13, FAK/PTK2 (Homo sapiens, UniProt Q05397); experiment: HotSpot kinase assay; format: biochemical; conditions: read-out: % Enzyme Activity (relative to DMSO controls)
T13 construct: purchased Reaction Biology Corporation

FLT1/VEGFR1 = biological target: T14, FLT1/VEGFR1 (Homo sapiens, UniProt P17948); experiment: HotSpot kinase assay; format: biochemical; conditions: read-out: % Enzyme Activity (relative to DMSO controls)
T14 construct: purchased Reaction Biology Corporation

GRK4 = biological target: T15, GRK4 (Homo sapiens, UniProt P32298); experiment: HotSpot kinase assay; format: biochemical; conditions: read-out: % Enzyme Activity (relative to DMSO controls)
T15 construct: purchased Reaction Biology Corporation

GRK6 = biological target: T16, GRK6 (Homo sapiens, UniProt P43250); experiment: HotSpot kinase assay; format: biochemical; conditions: read-out: % Enzyme Activity (relative to DMSO controls)
T16 construct: purchased Reaction Biology Corporation

IGF1R = biological target: T17, IGF1R (Homo sapiens, UniProt P08069); experiment: HotSpot kinase assay; format: biochemical; conditions: read-out: % Enzyme Activity (relative to DMSO controls)
T17 construct: purchased Reaction Biology Corporation

KDR/VEGFR2 = biological target: T18, KDR/VEGFR2 (Homo sapiens, UniProt P35968); experiment: HotSpot kinase assay; format: biochemical; conditions: read-out: % Enzyme Activity (relative to DMSO controls)
T18 construct: purchased Reaction Biology Corporation

KSR1 = biological target: T19, KSR1 (Homo sapiens, UniProt Q8IVT5); experiment: biochemical; conditions: read-out: % Enzyme Activity (relative to DMSO controls)
T19 construct: purchased Reaction Biology Corporation

KSR2 = biological target: T20, KSR2 (Homo sapiens, UniProt Q6VAB6); experiment: biochemical; conditions: read-out: % Enzyme Activity (relative to DMSO controls)
T20 construct: purchased Reaction Biology Corporation

LATS1 = biological target: T21, LATS1 (Homo sapiens, UniProt O95835); experiment: HotSpot kinase assay; format: biochemical; conditions: read-out: % Enzyme Activity (relative to DMSO controls)
T21 construct: purchased Reaction Biology Corporation

LCK2/ICK = biological target: T22, LCK2/ICK (Homo sapiens, UniProt Q9UPZ9); experiment: HotSpot kinase assay; format: biochemical; conditions: read-out: % Enzyme Activity (relative to DMSO controls)
T22 construct: purchased Reaction Biology Corporation

MAPKAPK5/PRAK = biological target: T23, MAPKAPK5/PRAK (Homo sapiens, UniProt Q8IW41); experiment: HotSpot kinase assay; format: biochemical; conditions: read-out: % Enzyme Activity (relative to DMSO controls)
T23 construct: purchased Reaction Biology Corporation

MKK6 = biological target: T24, MKK6 (Homo sapiens, UniProt P52564); experiment: HotSpot kinase assay; format: biochemical; conditions: read-out: % Enzyme Activity (relative to DMSO controls)
T24 construct: purchased Reaction Biology Corporation

MLCK2/MYLK2 = biological target: T25, MLCK2/MYLK2 (Homo sapiens, UniProt Q9H1R3); experiment: HotSpot kinase assay; format: biochemical; conditions: read-out: % Enzyme Activity (relative to DMSO controls)
T25 construct: purchased Reaction Biology Corporation

MNK2 = biological target: T26, MNK2 (Homo sapiens, UniProt Q9HBH9); experiment: HotSpot kinase assay; format: biochemical; conditions: read-out: % Enzyme Activity (relative to DMSO controls)
T26 construct: purchased Reaction Biology Corporation

NEK2 = biological target: T27, NEK2 (Homo sapiens, UniProt P51955); experiment: HotSpot kinase assay; format: biochemical; conditions: read-out: % Enzyme Activity (relative to DMSO controls)
T27 construct: purchased Reaction Biology Corporation

PASK = biological target: T28, PASK (Homo sapiens, UniProt Q96RG2); experiment: HotSpot kinase assay; format: biochemical; conditions: read-out: % Enzyme Activity (relative to DMSO controls)
T28 construct: purchased Reaction Biology Corporation

PKCd = biological target: T29, PKCd (Homo sapiens, UniProt Q05655); experiment: biochemical
T29 construct: purchased Reaction Biology Corporation

PKCepsilon = biological target: T30, PKCepsilon (Homo sapiens, UniProt Q02156); experiment: HotSpot kinase assay; format: biochemical; conditions: read-out: % Enzyme Activity (relative to DMSO controls)
T30 construct: purchased Reaction Biology Corporation

PKCg = biological target: T31, PKCg (Homo sapiens, UniProt P05129); experiment: HotSpot kinase assay; format: biochemical; conditions: read-out: % Enzyme Activity (relative to DMSO controls)
T31 construct: purchased Reaction Biology Corporation

PKD2/PRKD2 = biological target: T32, PKD2/PRKD2 (Homo sapiens, UniProt Q9BZL6); experiment: HotSpot kinase assay; format: biochemical; conditions: read-out: % Enzyme Activity (relative to DMSO controls)
T32 construct: purchased Reaction Biology Corporation

RIPK2 = biological target: T33, RIPK2 (Homo sapiens, UniProt O43353); experiment: HotSpot kinase assay; format: biochemical; conditions: read-out: % Enzyme Activity (relative to DMSO controls)
T33 construct: purchased Reaction Biology Corporation

RSK1 = biological target: T34, RSK1 (Homo sapiens, UniProt Q15418); experiment: HotSpot kinase assay; format: biochemical; conditions: read-out: % Enzyme Activity (relative to DMSO controls)
T34 construct: purchased Reaction Biology Corporation

STK32B/YANK2 = biological target: T35, STK32B/YANK2 (Homo sapiens, UniProt Q9NY57); experiment: HotSpot kinase assay; format: biochemical; conditions: read-out: % Enzyme Activity (relative to DMSO controls)
T35 construct: purchased Reaction Biology Corporation

TSSK3/STK22C = biological target: T36, TSSK3/STK22C (Homo sapiens, UniProt Q96PN8); experiment: HotSpot kinase assay; format: biochemical; conditions: read-out: % Enzyme Activity (relative to DMSO controls)
T36 construct: purchased Reaction Biology Corporation

TYK2 = biological target: T37, TYK2 (Homo sapiens, UniProt P29597); experiment: HotSpot kinase assay; format: biochemical; conditions: read-out: % Enzyme Activity (relative to DMSO controls)
T37 construct: purchased Reaction Biology Corporation

ZIPK/DAPK3 = biological target: T38, ZIPK/DAPK3 (Homo sapiens, UniProt O43293); experiment: HotSpot kinase assay; format: biochemical; conditions: read-out: % Enzyme Activity (relative to DMSO controls)
T38 construct: purchased Reaction Biology Corporation

HSV-2(G) = experiment: HSV binding assay (gD western blot), HaCat cells; format: cell-based; conditions: 10 μM, 4 h at 4 °C
Experimental: After 48 h incubation, plaques were counted by immunoassay using an anti–human IgG antibody peroxidase conjugate (PA1-86064, Thermo Fisher)[33]. […] Western blots were prepared and probed for gD as a marker of bound virus and β-actin as a control.

PLSCR1 = PLSCR1 phosphorylation (IP/western), HSV-2 infected HaCaT cells; format: cell-based, human; conditions: 10 μM, 30 min
VSV-S = format: cell-based, VSV pseudotyped with SARS-CoV-2 spike
[1] = Supplementary Table 1, read-out: IC50 (Molar concentration)
[2] = read-out: % Enzyme Activity (relative to DMSO controls), 10µM

T29 sequence (Q05655 whole entry): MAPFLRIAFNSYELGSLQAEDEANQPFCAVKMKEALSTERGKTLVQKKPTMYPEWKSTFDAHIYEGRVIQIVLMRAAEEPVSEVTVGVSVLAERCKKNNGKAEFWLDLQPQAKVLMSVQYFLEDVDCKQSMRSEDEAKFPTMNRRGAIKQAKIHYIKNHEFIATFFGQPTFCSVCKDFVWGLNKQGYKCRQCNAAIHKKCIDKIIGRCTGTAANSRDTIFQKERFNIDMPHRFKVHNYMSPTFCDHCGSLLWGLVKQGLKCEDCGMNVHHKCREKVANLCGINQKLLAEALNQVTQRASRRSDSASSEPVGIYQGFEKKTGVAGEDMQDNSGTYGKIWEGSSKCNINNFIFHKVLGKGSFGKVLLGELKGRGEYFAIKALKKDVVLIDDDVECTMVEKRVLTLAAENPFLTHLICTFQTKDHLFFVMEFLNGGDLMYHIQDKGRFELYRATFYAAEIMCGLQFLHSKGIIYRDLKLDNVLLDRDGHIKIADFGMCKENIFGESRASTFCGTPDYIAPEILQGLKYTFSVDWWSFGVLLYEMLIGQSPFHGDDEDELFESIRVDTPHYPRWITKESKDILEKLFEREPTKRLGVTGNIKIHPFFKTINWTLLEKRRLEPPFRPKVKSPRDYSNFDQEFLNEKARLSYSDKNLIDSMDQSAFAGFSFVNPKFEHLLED
T11 sequence (P00533 25-1210): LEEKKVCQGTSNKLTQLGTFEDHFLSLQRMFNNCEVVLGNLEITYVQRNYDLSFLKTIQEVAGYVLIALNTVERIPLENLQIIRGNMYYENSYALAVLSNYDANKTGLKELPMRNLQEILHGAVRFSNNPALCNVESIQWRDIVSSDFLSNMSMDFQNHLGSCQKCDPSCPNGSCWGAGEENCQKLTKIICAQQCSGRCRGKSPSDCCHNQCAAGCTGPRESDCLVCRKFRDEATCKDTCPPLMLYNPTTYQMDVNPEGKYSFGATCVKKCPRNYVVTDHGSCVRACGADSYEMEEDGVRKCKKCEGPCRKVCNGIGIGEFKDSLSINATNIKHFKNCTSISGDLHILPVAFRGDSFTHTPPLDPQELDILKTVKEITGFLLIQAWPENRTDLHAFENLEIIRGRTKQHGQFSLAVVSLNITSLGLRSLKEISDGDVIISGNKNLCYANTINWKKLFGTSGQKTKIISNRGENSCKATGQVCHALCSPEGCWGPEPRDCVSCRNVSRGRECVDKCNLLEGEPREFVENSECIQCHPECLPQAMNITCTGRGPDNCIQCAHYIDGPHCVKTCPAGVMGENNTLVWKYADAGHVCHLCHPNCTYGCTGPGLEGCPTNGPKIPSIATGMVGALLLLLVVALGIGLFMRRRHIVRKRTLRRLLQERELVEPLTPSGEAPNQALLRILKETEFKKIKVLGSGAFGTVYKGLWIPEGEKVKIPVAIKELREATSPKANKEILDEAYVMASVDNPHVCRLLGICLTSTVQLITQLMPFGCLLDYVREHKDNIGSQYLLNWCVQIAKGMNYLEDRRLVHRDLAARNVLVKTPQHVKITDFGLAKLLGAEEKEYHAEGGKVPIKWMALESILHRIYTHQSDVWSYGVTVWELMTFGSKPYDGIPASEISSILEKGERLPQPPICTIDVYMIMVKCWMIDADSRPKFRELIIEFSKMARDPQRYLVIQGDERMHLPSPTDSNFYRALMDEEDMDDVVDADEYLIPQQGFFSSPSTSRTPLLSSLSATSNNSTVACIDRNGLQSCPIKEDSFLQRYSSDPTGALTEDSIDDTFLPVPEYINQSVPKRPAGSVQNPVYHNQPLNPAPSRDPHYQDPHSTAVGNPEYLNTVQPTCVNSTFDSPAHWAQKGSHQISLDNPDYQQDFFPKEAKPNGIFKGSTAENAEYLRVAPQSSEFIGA
T24 sequence (P52564 whole entry): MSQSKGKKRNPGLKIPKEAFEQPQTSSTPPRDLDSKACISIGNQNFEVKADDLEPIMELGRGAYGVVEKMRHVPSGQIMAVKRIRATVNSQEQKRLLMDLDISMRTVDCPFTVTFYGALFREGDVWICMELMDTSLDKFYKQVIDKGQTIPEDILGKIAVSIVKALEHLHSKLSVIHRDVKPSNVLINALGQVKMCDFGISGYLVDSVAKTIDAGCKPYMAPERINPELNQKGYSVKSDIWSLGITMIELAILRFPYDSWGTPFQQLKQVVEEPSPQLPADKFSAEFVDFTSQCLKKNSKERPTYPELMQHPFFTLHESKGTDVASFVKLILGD
T3 sequence (P15056 whole entry): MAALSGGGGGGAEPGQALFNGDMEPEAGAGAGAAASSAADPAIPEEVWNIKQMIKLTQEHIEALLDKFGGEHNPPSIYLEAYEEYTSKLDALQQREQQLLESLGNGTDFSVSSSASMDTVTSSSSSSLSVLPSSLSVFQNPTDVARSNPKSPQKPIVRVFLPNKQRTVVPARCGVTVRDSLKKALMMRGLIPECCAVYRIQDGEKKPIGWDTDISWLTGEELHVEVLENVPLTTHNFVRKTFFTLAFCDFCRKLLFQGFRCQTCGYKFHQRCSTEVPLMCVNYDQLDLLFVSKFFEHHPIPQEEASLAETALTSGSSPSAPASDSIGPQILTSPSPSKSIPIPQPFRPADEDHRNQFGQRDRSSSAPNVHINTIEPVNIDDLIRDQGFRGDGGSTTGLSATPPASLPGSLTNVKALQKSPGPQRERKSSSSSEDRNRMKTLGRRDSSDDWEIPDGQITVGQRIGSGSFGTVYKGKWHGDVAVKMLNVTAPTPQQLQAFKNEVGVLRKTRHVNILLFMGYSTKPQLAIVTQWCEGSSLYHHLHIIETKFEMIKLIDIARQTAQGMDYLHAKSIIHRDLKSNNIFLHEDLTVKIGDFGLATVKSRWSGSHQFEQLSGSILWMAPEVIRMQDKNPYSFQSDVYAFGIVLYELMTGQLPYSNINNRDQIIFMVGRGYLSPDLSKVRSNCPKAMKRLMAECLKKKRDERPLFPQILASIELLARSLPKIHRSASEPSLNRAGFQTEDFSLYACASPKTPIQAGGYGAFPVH
T5 sequence (Q8N5S9 whole entry): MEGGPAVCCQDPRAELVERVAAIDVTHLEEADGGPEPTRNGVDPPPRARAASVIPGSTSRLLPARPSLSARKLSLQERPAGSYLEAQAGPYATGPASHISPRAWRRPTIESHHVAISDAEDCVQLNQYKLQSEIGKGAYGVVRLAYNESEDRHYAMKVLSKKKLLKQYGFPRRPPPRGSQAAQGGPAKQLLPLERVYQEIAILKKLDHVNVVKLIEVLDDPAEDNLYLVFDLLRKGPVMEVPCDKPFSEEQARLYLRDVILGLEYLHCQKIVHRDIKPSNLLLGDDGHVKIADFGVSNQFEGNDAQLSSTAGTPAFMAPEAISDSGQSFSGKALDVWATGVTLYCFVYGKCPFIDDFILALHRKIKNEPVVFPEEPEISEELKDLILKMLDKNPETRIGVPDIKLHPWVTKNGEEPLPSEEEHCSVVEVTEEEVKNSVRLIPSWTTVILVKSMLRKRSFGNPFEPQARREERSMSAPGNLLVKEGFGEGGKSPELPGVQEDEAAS
T4 sequence (Q06187 whole entry): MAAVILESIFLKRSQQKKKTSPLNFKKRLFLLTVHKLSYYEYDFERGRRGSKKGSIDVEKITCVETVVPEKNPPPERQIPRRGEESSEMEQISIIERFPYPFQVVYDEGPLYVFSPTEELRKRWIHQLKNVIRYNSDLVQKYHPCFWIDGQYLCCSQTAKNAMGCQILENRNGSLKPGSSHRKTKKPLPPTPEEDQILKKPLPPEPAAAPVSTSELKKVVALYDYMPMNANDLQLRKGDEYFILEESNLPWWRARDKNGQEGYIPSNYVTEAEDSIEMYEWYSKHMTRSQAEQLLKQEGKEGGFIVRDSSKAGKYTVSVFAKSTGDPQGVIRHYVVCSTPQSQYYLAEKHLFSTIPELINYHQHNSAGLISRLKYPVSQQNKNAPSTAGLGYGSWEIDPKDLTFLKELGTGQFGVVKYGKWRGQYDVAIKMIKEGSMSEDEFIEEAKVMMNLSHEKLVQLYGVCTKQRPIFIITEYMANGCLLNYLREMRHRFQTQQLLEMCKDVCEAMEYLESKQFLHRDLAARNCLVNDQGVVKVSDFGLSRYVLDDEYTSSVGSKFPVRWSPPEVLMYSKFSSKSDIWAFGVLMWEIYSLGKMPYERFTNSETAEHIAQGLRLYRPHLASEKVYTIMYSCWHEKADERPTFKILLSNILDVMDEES
T27 sequence (P51955 whole entry): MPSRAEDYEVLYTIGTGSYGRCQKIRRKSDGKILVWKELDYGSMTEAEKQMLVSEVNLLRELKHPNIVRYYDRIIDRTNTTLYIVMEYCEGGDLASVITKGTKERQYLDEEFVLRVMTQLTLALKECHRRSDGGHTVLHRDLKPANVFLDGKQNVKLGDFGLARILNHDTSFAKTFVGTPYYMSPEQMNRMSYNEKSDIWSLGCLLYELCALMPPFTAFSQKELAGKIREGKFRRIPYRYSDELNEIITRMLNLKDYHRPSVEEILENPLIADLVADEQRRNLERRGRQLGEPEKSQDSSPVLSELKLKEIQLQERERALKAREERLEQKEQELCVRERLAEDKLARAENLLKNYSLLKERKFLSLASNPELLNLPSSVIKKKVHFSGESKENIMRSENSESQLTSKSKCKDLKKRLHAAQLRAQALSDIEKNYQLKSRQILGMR
T36 sequence (Q96PN8 whole entry): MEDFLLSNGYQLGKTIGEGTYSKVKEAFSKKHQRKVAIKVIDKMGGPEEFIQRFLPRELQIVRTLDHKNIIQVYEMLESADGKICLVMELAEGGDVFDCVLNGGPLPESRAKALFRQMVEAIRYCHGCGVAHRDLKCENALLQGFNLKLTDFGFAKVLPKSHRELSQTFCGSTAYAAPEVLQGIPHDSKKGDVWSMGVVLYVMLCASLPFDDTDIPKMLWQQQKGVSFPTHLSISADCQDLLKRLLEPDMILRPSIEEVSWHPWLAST

CO[C@@H]1[C@H](N(C)C(=O)CCC(=O)NCc2cn(CCCS(=O)(=O)O)nn2)C[C@H]2O[C@]1(C)n1c3ccccc3c3c4c(c5c6ccccc6n2c5c31)C(=O)NC4 [CIMSS]
remaining activity at 10 µM (ALK3/BMPR1A): 79.5%
remaining activity at 10 µM (ASK1/MAP3K5): 6.25%
remaining activity at 10 µM (BRAF): 132%
remaining activity at 10 µM (BTK): 6.64%
remaining activity at 10 µM (CAMKK1): 1%
remaining activity at 10 µM (CDK5/p35): 8.78%
remaining activity at 10 µM (CDK7/cyclin H): 65.6%
remaining activity at 10 µM (CDK9/cyclin T2): 8.55%
remaining activity at 10 µM (CHK1): 4.66%
remaining activity at 10 µM (DAPK2): 11.3%
IC50 (EGFR; [1]): 1610 nM
remaining activity at 10 µM (EGFR; [2]): 17.4%
remaining activity at 10 µM (EPHB1): 1.91%
remaining activity at 10 µM (FAK/PTK2): 15.5%
remaining activity at 10 µM (FLT1/VEGFR1): 2.92%
remaining activity at 10 µM (GRK4): 19.8%
remaining activity at 10 µM (GRK6): 8.36%
remaining activity at 10 µM (IGF1R): 6.72%
remaining activity at 10 µM (KDR/VEGFR2): 7.22%
remaining activity at 10 µM (KSR1): 90.8%
remaining activity at 10 µM (KSR2): 108%
remaining activity at 10 µM (LATS1): 9.89%
remaining activity at 10 µM (LCK2/ICK): 4.57%
remaining activity at 10 µM (MAPKAPK5/PRAK): 85.2%
remaining activity at 10 µM (MKK6): 59.7%
remaining activity at 10 µM (MLCK2/MYLK2): 27.3%
remaining activity at 10 µM (MNK2): 4.79%
remaining activity at 10 µM (NEK2): 18.8%
remaining activity at 10 µM (PASK): 41.6%
IC50 (PKCd; [1]): 3.64 nM
remaining activity at 10 µM (PKCd; [2]): 8.64%
remaining activity at 10 µM (PKCepsilon): 1.11%
remaining activity at 10 µM (PKCg): 1.77%
remaining activity at 10 µM (PKD2/PRKD2): 11.9%
remaining activity at 10 µM (RIPK2): 41.7%
remaining activity at 10 µM (RSK1): 3.27%
remaining activity at 10 µM (STK32B/YANK2): 0.96%
remaining activity at 10 µM (TSSK3/STK22C): 62.2%
remaining activity at 10 µM (TYK2): 6.35%
remaining activity at 10 µM (ZIPK/DAPK3): 6.48%
HSV binding to cells (HSV-2(G)): did not block
Phosphorylation of PLSCR1 (PLSCR1): not
VSV-S infection (VSV-S): inhibited
